Consider three molecules from patent publication US7291486B2, “Genetically modified cells and methods for converting (R)-methylmalonyl CoA to (S)-methylmalonyl CoA” (KOSAN Biosciences, Inc., priority 1999, dated 2007).

The nature of data set [1]: Stability of acyl-CoAs in TCA and mutase assay buffer (HPLC). The following applies: mutase assay conditions, 30° C. In kind it is physicochemical. As to the method:
To test whether acyl-CoAs degrade in TCA, the following tests were conducted. The CoA mix consisted of 1.6 mM each of malonyl-, methylmalonyl-, succinyl-, acetyl-, and propionyl-CoA, plus 0.5 mM CoA. An aliquot (10 μL) of this mix was added to 100 μL 10% TCA, 50 μL were immediately injected to the HPLC for CoA analysis, and the remainder was promptly frozen on dry ice. The frozen portion was then thawed and loaded immediately to the HPLC. Again, 10 μL of the CoA mix were added to 100 μL 10% TCA, 50 μL were left on ice for 15 minutes and then injected to the HPLC, the remainder was left at 4° C. overnight and injected to the HPLC the next morning. The area under each CoA peak was noted. This same procedure was followed but using a mixture of TCA and buffer A from the mutase assay.
The CoA analysis described here is carried out on cells which are lysed in 10% TCA. […] Thus, the CoAs are stable in TCA and in the mutase assay buffer after the cells are lysed or after the assays are completed, and prior to HPLC analysis.
Although the CoAs are stable in TCA and buffer at 4° C., they degraded at 30° C., the temperature at which the mutase assay was performed. In five minutes under the assay conditions, about 4% of the methylmalonyl-CoA hydrolyzed to CoA. […] Thus, the mutase assay is suboptimal for extremely quantitative results.

The nature of data set [2]: Spontaneous chemical epimerization between (R)- and (S)-mm-CoA. In kind it is physicochemical. The following applies: in 15 minutes.
Data set [3] can be described thus: Epimerase assay coupled to transcarboxylase and malate dehydrogenase, crude E. coli extracts. Type of data set: biochemical. The following applies: 30° C. How it is done:
Cells of strain BL2] (DE3) containing pET-epsherm, pET-epcoel, pET-epsub, or a control pET vector were grown overnight at 37° C. in 2 mL LB containing 100 μg/ml carbenicillin. The starter culture (250 μL) was used to inoculate 25 mL LB containing 100 μg/ml carbenicillin. The cultures were grown at 37° C. to an OD of approximately 0.4, then induced with IPTG to 1 mM final concentration and grown for an additional 3 hours at 30° C. The cells were collected by centrifugation at 4000 rpm for 10 minutes, and the pellets were stored at −80° C. prior to assay. […]
Epimerase activity was measured in crude extracts of E. coli harboring either pET-epsherm, pET-epcoel, pET-epsub, or a control pET vector. The epimerase assay couples transcarboxylase, which converts (S)-methylmalonyl-CoA into propionyl-CoA, to malate dehydrogenase, which converts NADH into NAD^+, producing a decrease in absorbance at 340 nm. […] When an extract containing epimerase is added to the assay, the (R)-isomer is converted to (S)—, resulting in a further decrease in absorbance. […]
The pellet from approximately 20 mL of culture was thawed and resuspended in 2 mL 1X assay buffer containing a protease inhibitor cocktail tablet. […] The reaction was initiated with (2R,2S)-methylmalonyl-CoA and the decrease in absorbance at 340 nm was monitored, reflecting the disappearance of the 2S isomer. […]

In the case of `CC(C)(COP(=O)(O)OP(=O)(O)OC[C@H]1O[C@@H](n2cnc3c(N)ncnc32)[C@H](O)[C@@H]1OP(=O)(O)O)[C@@H](O)C(=O)NCCC(=O)NCCSC(=O)CCC(=O)O` [succinyl-CoA], the “rate of hydrolysis relative to methylmalonyl-CoA” value in data set [1] was “comparable rate”.

Regarding `CC(C(=O)O)C(=O)SCCNC(=O)CCNC(=O)[C@H](O)C(C)(C)COP(=O)(O)OP(=O)(O)OC[C@H]1O[C@@H](n2cnc3c(N)ncnc32)[C@H](O)[C@@H]1OP(=O)(O)O` (stereo partly shown) [methylmalonyl-CoA], in data set [1] (five minutes), the “hydrolyzed to CoA” value is listed as “about 4%”. In addition, the “spontaneous chemical epimerization between (R)- and (S)-mm-CoA” value in data set [2] is “approximately 3%”.

B1: P. shermanii epimerase: methylmalonyl-CoA epimerase from Propionibacterium shermanii expressed in E. coli, SEQ ID NO: 2 (protein)
chain: MSNEDLFICIDHVAYACPDADEASKYYQETFGWHELHREENPEQGVVEIMMAPAAKLTEHMTQVQVMAPLNDESTVAKWLAKHNGRAGLHHMAWRVDDIDAVSATLRERGVQLLYDEPKLGTGGNRINFMHPKSGKGVLIELTQYPKN
modifications: Deduced amino acid sequence of the epimerase gene sequence
On to B1, for which the specific activity result in data set [3] is on record as “approximately 30 units/mg”.
